From US12364261B2, “Liquid sulfonylurea- and Li-salt containing herbicidal compositions” (priority 2016, dated 2025)
Where two headings read alike, the source gives them in different places.

Key:
[1] = chemical stability of active ingredient in liquid formulation after storage at 54° C. for two weeks (HPLC, relative to −10° C. control); format: physicochemical
Procedure: Chemical stability can be determined as a percentage of the sulfonyl urea remaining (e.g. as determined by HPLC) when the liquid composition (e.g. a 50 ml sample of the liquid composition in a 60 ml hermetically sealed Winchester bottle) has been stored at 54° C. for two weeks relative to a corresponding control sample that has been stored at −10° C. for two weeks.
Sulfonylurea was added to a solvent in an amount of 25 wt. %. The mixture was placed in a mill (Eiger Torrance Mini Mill) containing glass beads (1.0-1.25 mm). The suspension was then milled to provide a 25 wt. % sulfonylurea millbase having a particle size (D50) between 2 and 3 μm.
Lithium salt was added to solvent in an amount of 25 wt. % and milled as described above to provide a 25 wt. % lithium salt millbase having a particle size (D50) between 2 and 3 μm.
An appropriate amount of the milled concentrate of sulfonylurea (i) was blended with solvent (optionally containing surfactant) until homogenous, and then further blended with milled concentrate of lithium salt (ii) until homogenous, resulting in the oil dispersions as described in the tables below.
The liquid formulations were stored in tightly closed glass bottles in thermostatically controlled incubators at 54° C. for two weeks with control samples stored at −10° C. After storage, all formulations were analysed for active ingredient content(s) by HPLC. Stability is reported with respect to the amount of active ingredient remaining relative to a corresponding sample stored at −10° C. for two weeks.

[2] = after 5 days, depending on the selected solvent; U.S. Pat. No. 5,731,264; cited from earlier work
[3] = one week of storage at 40° C.; WO 2007/027863 A2; cited from earlier work
[4] = in the presence of lithium acetate

Structure (SMILES)	chemical stability in the presence of lithium acetate [1, 4]	also measured
COC(=O)c1ccccc1S(=O)(=O)NC(=O)Nc1nc(C)nc(OC)n1 [metsulfuron-methyl, methyl 2-[[[[(4-methoxy-6-methyl-1,3,5-triazin-2-yl)amino]carbonyl]amino]sulfonyl]benzoate]	–	chemical stability in the presence of lithium acetate [1]: excellent chemical stability; metsulfuron methyl lost [2]: 25-30%
COC(=O)c1ccccc1S(=O)(=O)NC(=O)N(C)c1nc(C)nc(OC)n1 [tribenuron-methyl, methyl 2-[[[[N-(4-methoxy-6-methyl-1,3,5-triazin-2-yl)-N-methylamino]carbonyl]amino]-sulfonyl]benzoate]	–	tribenuron-methyl lost [3]: up to 66.5%
CCOC(=O)c1cnn(C)c1S(=O)(=O)NC(=O)Nc1nc(OC)cc(OC)n1 [pyrazosulfuron-ethyl, ethyl 5-[[[[(4,6-dimethoxy-2-pyrimidinyl)amino]carbonyl]amino]sulfonyl]-1-methyl-1H-pyrazole-4-carboxylate]	excellent chemical stability	–

Continued, in another order:

chemical stability in the presence of lithium acetate [1, 4]	Structure (SMILES)	also measured
excellent chemical stability	COC(=O)c1c(Cl)nn(C)c1S(=O)(=O)NC(=O)Nc1nc(OC)cc(OC)n1 [halosulfuron-methyl, methyl 3-chloro-5-[[[[(4,6-dimethoxy-2-pyrimidinyl)amino]carbonyl]amino]sulfonyl]-1-methyl-1H-pyrazole-4-carboxylate]	–
excellent chemical stability	COC(=O)c1ccc(I)cc1S(=O)(=O)NC(=O)Nc1nc(C)nc(OC)n1 [iodosulfuron-methyl, methyl 4-iodo-2-[[[[(4-methoxy-6-methyl-1,3,5-triazin-2-yl)amino]carbonyl]amino]sulfonyl]benzoate]	chemical stability in the presence of lithium salts ([1]; in the presence of lithium acetate, formate, benzoate, octanoate, salicylate, citrate, carbonate, phosphate, chloride and sulphate): excellent chemical stability
excellent chemical stability	COc1cc(OC)nc(NC(=O)NS(=O)(=O)N(C)S(C)(=O)=O)n1 [amidosulfuron, N-[[[[(4,6-dimethoxy-2-pyrimdinyl)amino]carbonyl]amino]sulfonyl]-N-methylmethanesulfonamide]	–
